A word on the IC50: it is the concentration that inhibits the measured activity by half.

human TRPA1, sequence (O75762 whole entry): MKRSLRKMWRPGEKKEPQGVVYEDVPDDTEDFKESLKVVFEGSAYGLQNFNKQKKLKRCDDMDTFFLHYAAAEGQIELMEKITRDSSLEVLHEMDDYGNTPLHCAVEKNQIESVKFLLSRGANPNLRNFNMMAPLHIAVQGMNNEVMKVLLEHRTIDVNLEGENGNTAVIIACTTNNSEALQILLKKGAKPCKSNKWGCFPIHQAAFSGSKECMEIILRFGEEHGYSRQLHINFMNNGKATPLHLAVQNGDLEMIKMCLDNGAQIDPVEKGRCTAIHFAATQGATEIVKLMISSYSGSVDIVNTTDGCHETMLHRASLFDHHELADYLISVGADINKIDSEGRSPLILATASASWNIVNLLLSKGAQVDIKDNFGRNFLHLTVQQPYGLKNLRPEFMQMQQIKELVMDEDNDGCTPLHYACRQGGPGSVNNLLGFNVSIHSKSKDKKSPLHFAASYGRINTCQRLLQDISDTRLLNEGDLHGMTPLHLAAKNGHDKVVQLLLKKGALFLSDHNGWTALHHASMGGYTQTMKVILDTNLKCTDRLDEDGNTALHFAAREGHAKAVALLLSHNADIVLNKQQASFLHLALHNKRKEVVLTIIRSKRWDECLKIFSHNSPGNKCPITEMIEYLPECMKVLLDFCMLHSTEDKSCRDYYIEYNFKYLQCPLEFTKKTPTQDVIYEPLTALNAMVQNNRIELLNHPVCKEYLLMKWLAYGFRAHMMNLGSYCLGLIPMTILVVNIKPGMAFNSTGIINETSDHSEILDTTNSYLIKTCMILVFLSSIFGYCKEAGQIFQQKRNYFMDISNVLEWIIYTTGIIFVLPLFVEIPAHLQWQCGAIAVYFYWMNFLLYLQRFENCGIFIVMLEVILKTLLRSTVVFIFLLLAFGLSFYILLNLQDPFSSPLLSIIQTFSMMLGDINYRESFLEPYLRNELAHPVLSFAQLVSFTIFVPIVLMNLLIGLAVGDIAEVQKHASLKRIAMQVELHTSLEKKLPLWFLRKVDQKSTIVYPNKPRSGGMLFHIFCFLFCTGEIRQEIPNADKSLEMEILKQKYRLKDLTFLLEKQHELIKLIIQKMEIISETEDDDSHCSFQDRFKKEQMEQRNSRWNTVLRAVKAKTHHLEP

This experiment concerns the target human TRPA1 (Homo sapiens (Human), UniProt O75762). Kind of experiment: FLIPR Tetra calcium influx assay, block of cinnamaldehyde-induced calcium influx in CHO cells expressing TRPA1 (human). As to conditions: 20 min compound incubation, 75 uM cinnamaldehyde (~EC80), Hill coefficient fixed to 1.5, read-out: hTRPA1 AUC IC50. It counts as cell-based. Summed up: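 CHO cells loaded with calcium dye, preincubated with compounds 20 min at room temperature in HBSS/20 mM HEPES pH 7.4 with 0.02% BSA. Channels activated by ~EC80 cinnamaldehyde (75 uM human, 45 uM rat); block of calcium influx read on FLIPR Tetra, IC50 fitted with fixed Hill coefficient.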
As for `COc1cc(CNC(=O)[C@@H]2C[C@@H](F)CN2S(=O)(=O)c2ccc(F)cc2)cc(-c2ccc(C(F)(F)F)nc2)c1` [Example 116, (2S,4R)-4-fluoro-1-(4-fluorophenyl)sulfonyl-N-[[3-methoxy-5-[6-(trifluoromethyl)-3-pyridyl]phenyl]methyl]pyrrolidine-2-carboxamide], the IC50 is 47 nM.

On to `O=C(NCc1ncc(F)c(-c2ccc(C(F)(F)F)nc2)c1F)[C@@H]1C[C@@H](F)CN1S(=O)(=O)c1ccc(F)cc1` [Example 117, (2S,4R)—N-([3,5-difluoro-4-[6-(trifluoromethyl)pyridin-3-yl]pyridin-2-yl]methyl)-4-fluoro-1-[(4-fluorobenzene)sulfonyl]pyrrolidine-2-carboxamide], for which the IC50 was determined as 224 nM.

On to `COc1cc(-c2ccc(C(F)(F)F)nc2)cc(CNC(=O)[C@@H]2C[C@@H](F)CN2S(=O)(=O)c2ccc(F)cc2)n1` [Example 118, (2S,4R)-4-fluoro-1-[(4-fluorobenzene)sulfonyl]-N-([6-methoxy-4-[6-(trifluoromethyl)pyridin-3-yl]pyridin-2-yl]methyl)pyrrolidine-2-carboxamide], for which the concentration for half-maximal inhibition (IC50) was found to be 37 nM.

Consider `O=C(NCc1cc(F)nc(-c2ccc(C(F)(F)F)nc2)c1)[C@@H]1C[C@@H](F)CN1S(=O)(=O)c1ccc(F)cc1` [Example 119, (2S,4R)-4-fluoro-N-([2-fluoro-6-[6-(trifluoromethyl)pyridin-3-yl]pyridin-4-yl]methyl)-1-[(4-fluorobenzene)sulfonyl]pyrrolidine-2-carboxamide], for which the half-inhibitory concentration (IC50) was 52 nM.

With `O=C(NCc1cc(-c2ccc(C(F)(F)F)nc2)cc(F)n1)[C@@H]1C[C@@H](F)CN1S(=O)(=O)c1ccc(F)cc1` [Example 120, (2S,4R)-4-fluoro-1-(4-fluorophenyl)sulfonyl-N-[[6-fluoro-4-[6-(trifluoromethyl)-3-pyridyl]-2-pyridyl]methyl]pyrrolidine-2-carboxamide], the IC50 came out at 49 nM.

On to `O=C(NCc1cc(N2C3CCC2CC(C(F)(F)F)C3)c(F)cn1)[C@@H]1C[C@@H](F)CN1S(=O)(=O)c1ccc(F)cc1` (stereo partly drawn) [Example 121, (2S,4R)-4-fluoro-N-([5-fluoro-4-[3-(trifluoromethyl)-8-azabicyclo[3.2.1]octan-8-yl]pyridin-2-yl]methyl)-1-[(4-fluorobenzene)sulfonyl]pyrrolidine-2-carboxamide], for which the concentration for half-maximal inhibition (IC50) worked out at 741 nM.

For the molecule `O=C(NCc1cc(F)cc(-c2cnc(C(F)(F)F)cn2)c1)[C@@H]1C[C@@H](F)CN1S(=O)(=O)c1ccc(F)cc1` [Example 122, (2S,4R)-4-fluoro-1-(4-fluorophenyl)sulfonyl-N-[[3-fluoro-5-[5-(trifluoromethyl)pyrazin-2-yl]phenyl]methyl]pyrrolidine-2-carboxamide], the IC50 came to 14 nM.

As to `O=C(NCc1cc(-c2ccc(C(F)(F)F)nc2)ncn1)[C@@H]1C[C@H]2C[C@H]2N1S(=O)(=O)c1ccc(F)cc1` [Example 123, (1R,3S,5R)-2-(4-fluorophenyl)sulfonyl-N-[[6-[6-(trifluoromethyl)-3-pyridyl]pyrimidin-4-yl]methyl]-2-azabicyclo[3.1.0]hexane-3-carboxamide], the IC50 was determined as 156 nM.

Take `COc1nn(-c2ccc(C(F)(F)F)nc2)cc1CNC(=O)[C@]1(C)C[C@@H](F)CN1S(=O)(=O)c1ccc(F)cc1` [Example 125, (2S,4R)-4-fluoro-1-[(4-fluorobenzene)sulfonyl]-N-([3-methoxy-1-[6-(trifluoromethyl)pyridin-3-yl]-1H-pyrazol-4-yl]methyl)-2-methylpyrrolidine-2-carboxamide]: the IC50 was 9 nM.

Turning to `C[C@@]1(C(=O)NCc2cc(-c3ccc(C(F)(F)F)nc3)c(F)cn2)C[C@@H](F)CN1S(=O)(=O)c1ccc(F)cc1` [Example 126, (2S,4R)-4-fluoro-1-(4-fluorophenyl)sulfonyl-N-[[5-fluoro-4-[6-(trifluoromethyl)-3-pyridyl]-2-pyridyl]methyl]-2-methyl-pyrrolidine-2-carboxamide], the IC50 worked out at 25 nM.

Consider `COc1nc(CNC(=O)[C@@H]2C[C@@H](F)CN2S(=O)(=O)c2ccc(F)cc2)cc(-c2ccc(C(F)(F)F)nc2)n1` [Example 127, (2S,4R)-4-fluoro-1-[(4-fluorobenzene)sulfonyl]-N-([2-methoxy-6-[6-(trifluoromethyl)pyridin-3-yl]pyrimidin-4-yl]methyl)pyrrolidine-2-carboxamide], for which the IC50 is 97 nM.

Consider `O=C(NCc1cc(N2CCC(F)(F)CC2)c(F)cn1)[C@@H]1C[C@@H](F)CN1S(=O)(=O)c1ccc(F)cc1` [Example 128, (2S,4R)—N-[[4-(4,4-difluoro-1-piperidyl)-5-fluoro-2-pyridyl]methyl]-4-fluoro-1-(4-fluorophenyl)sulfonyl-pyrrolidine-2-carboxamide], for which the half-inhibitory concentration (IC50) came out at 404 nM.

As to `O=C(NCc1cc(N2CCC3(CC2)CC3)c(F)cn1)[C@@H]1C[C@@H](F)CN1S(=O)(=O)c1ccc(F)cc1` [Example 129, (2S,4R)—N-[[4-(6-azaspiro[2.5]octan-6-yl)-5-fluoro-2-pyridyl]methyl]-4-fluoro-1-(4-fluorophenyl)sulfonyl-pyrrolidine-2-carboxamide], the IC50 is 99 nM.

Regarding `O=C(NCc1cc(N2CCC(C(F)(F)F)CC2)c(C(F)(F)F)cn1)[C@@H]1C[C@@H](F)CN1S(=O)(=O)c1ccc(F)cc1` [Example 130, (2S,4R)-4-fluoro-1-(4-fluorophenyl)sulfonyl-N-[[5-(trifluoromethyl)-4-[4-(trifluoromethyl)-1-piperidyl]-2-pyridyl]methyl]pyrrolidine-2-carboxamide], the IC50 came to 52 nM.

Consider `O=C(NCc1cc(-c2ccc(C(F)(F)F)cn2)ccn1)[C@@H]1C[C@@H](F)CN1S(=O)(=O)c1ccc(F)cc1` [Example 131, (2S,4R)-4-fluoro-1-(4-fluorophenyl)sulfonyl-N-[[4-[5-(trifluoromethyl)-2-pyridyl]-2-pyridyl]methyl]pyrrolidine-2-carboxamide], for which the IC50 amounted to 102 nM.

As for `COc1nn(-c2cnc(C(F)(F)F)nc2)cc1CNC(=O)[C@@H]1C[C@@H](F)CN1S(=O)(=O)c1ccc(F)cc1` [Example 132, (2S,4R)-4-fluoro-1-[(4-fluorobenzene)sulfonyl]-N-([3-methoxy-1-[2-(trifluoromethyl)pyrimidin-5-yl]-1H-pyrazol-4-yl]methyl)pyrrolidine-2-carboxamide], the 50% inhibitory concentration (IC50) worked out at 126 nM.

Regarding `O=C(NCc1cc(C23CCC(C(F)F)(CC2)CC3)ncn1)[C@@H]1C[C@@H](F)CN1S(=O)(=O)c1ccc(F)cc1` [Example 133, (2S,4R)—N-[[6-[4-(difluoromethyl)-1-bicyclo[2.2.2]octanyl]pyrimidin-4-yl]methyl]-4-fluoro-1-(4-fluorophenyl)sulfonyl-pyrrolidine-2-carboxamide], the concentration for half-maximal inhibition (IC50) was found to be 59 nM.

Turning to `COc1nn(-c2ccc(C(F)(F)F)cc2)cc1CNC(=O)[C@@H]1C[C@@H](F)CN1S(=O)(=O)c1cccc(F)c1` [Example 134, (2S,4R)-4-fluoro-1-[(3-fluorobenzene)sulfonyl]-N-([3-methoxy-1-[4-(trifluoromethyl)phenyl]-1H-pyrazol-4-yl]methyl)pyrrolidine-2-carboxamide], the 50% inhibitory concentration (IC50) was 23 nM.

With `COc1nn(-c2ccc(C(F)(F)F)cc2)cc1CNC(=O)[C@@H]1C[C@@H](F)CN1S(=O)(=O)c1ccc(F)cc1` [Example 135, (2S,4R)-4-fluoro-1-[(4-fluorobenzene)sulfonyl]-N-([3-methoxy-1-[4-(trifluoromethyl)phenyl]-1H-pyrazol-4-yl]methyl)pyrrolidine-2-carboxamide], the IC50 worked out at 11 nM.

These data come from patent US11236046B2, “Substituted heterocyclic sulfonamide compounds useful as TRPA1 modulators” (Genentech, Inc., priority 2013, dated 2022).
